Experimental data published in US5268468A, “N-nitrosophenoxybenzenepropanamine and N-1-chloroethyl carbamate intermediates” (Hoechst-Roussel Pharmaceuticals Incorporated, priority 1993, dated 1993).
Counter-ions that a name gives are not always drawn.

System: serotonin uptake in rat whole brain and hypothalamic synaptosomes
Assay: [3H]-Serotonin Uptake in Rat Whole Brain and Hypothalamic Synaptosomes
Type: biochemical, rat (male CR Wistar)
Conditions: rat whole brain or hypothalamic synaptosomes; 50 nM [3H]-5-hydroxytryptamine; 37° C., 5 minutes; pH 7.4; log-probit analysis; read-out: Inhibition of Serotonin Uptake (IC50)
Protocol: [^3 H]-Serotonin Uptake in Rat Whole Brain
A. Animals: Male CR Wistar rats (100-125 g).
1. Krebs-Henseleit Bicarbonate Buffer, pH 7.4 (KHBB):
Make a 1 liter batch, containing the following salts.
Potassium chloride 0.35 4.7
Calcium chloride 0.14 1.3
Aerate for 60 min. with 95% oxygen/5% carbon dioxide,
2. 0.32 M Sucrose: 21.9 g of sucrose, bring to 200 ml.
3. Serotonin creatinine sulfate 0.1 mM stock solution is
made up in 0.01 N hydrochloric acid. This is used to
dilute the specific activity of radiolabeled
[H^3 ]-5-hydroxytryptamine (serotonin).
4. 5-[1,2-^3 H(N)]-Hydroxytryptamine creatinine sulfate
(Serotonin), specific activity 20-30 Ci/mmol is used.
The final desired concentration of
[H^3 ]-5-hydroxytryptamine in the assay is 50 nM. The
dilution factor is 0.8. Therefore, the KHBB is made up to
contain 62.5 nM [H^3 ]-5-hydroxy-tryptamine.
A) 56.1 μl of 0.1 mM 5-hydroxytryptamine
*B) 0.64 nmole of 5-hydroxytryptamine
5. For most assays, a 1 mM stock solution of the test com-
pound is made up in suitable solvent and serially diluted
such that the final concentration in the assay ranges from
2 × 10^-8 to 2 × 10^-5 M. Seven concentrations
for each assay. Higher or lower concentrations may be
used depending on the potency of the compound.
Male Wistar rats are decapitated and the brain rapidly
removed. […]
scintillation vials, and counted in 10 ml of Liquiscint […]

## CN(N)CCC(Oc1ccc(C(F)(F)F)cc1)c1ccccc1 (stereo not shown) [2-Methyl-2-[3-phenyl-3-[(4-trifluoromethyl)phenoxy]propyl]hydrazine maleate]
  IC50: 1.23 µM
